For 7 molecules, IC50 results are on record in ChEMBL document CHEMBL5375994, “Advances in Development of Selective Antitumor Inhibitors That Target PARP-1” (J Med Chem, 2023).

The target of experiment [1] is Poly [ADP-ribose] polymerase 1 (Homo sapiens, UniProt P09874). The experiment can be described thus: Inhibition of human recombinant PARP-1.
Experiment [2] addresses Poly [ADP-ribose] polymerase 2 (Homo sapiens, UniProt Q9UGN5). In words: Inhibition of PARP-2 (unknown origin).

Sequence of Poly [ADP-ribose] polymerase 1 (P09874 whole entry): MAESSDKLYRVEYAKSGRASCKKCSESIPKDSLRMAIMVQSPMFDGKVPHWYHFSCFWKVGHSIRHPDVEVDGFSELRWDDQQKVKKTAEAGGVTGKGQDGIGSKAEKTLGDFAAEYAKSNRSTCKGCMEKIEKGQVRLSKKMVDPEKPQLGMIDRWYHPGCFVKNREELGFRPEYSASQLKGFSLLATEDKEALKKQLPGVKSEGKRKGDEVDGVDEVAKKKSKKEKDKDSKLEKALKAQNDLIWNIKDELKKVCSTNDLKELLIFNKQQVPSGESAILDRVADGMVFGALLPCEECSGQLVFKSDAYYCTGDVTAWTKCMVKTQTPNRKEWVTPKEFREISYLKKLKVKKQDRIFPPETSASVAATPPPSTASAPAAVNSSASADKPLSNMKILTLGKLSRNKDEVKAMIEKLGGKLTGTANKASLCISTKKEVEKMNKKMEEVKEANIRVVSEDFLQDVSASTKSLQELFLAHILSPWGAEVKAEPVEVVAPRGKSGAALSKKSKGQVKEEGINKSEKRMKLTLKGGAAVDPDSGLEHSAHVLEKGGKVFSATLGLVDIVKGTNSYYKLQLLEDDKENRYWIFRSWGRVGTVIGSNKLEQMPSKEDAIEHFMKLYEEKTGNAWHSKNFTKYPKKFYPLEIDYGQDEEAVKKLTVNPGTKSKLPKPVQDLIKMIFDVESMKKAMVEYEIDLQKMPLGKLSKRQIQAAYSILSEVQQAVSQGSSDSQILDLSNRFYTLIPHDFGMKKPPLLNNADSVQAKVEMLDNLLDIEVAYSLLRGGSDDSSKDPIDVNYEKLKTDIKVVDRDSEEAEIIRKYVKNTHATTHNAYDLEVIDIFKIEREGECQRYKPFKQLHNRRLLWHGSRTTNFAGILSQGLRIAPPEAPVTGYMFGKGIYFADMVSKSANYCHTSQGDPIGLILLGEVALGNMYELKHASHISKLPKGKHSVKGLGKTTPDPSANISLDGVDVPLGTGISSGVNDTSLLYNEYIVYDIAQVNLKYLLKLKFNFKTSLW
Sequence of Poly [ADP-ribose] polymerase 2 (Q9UGN5 whole entry): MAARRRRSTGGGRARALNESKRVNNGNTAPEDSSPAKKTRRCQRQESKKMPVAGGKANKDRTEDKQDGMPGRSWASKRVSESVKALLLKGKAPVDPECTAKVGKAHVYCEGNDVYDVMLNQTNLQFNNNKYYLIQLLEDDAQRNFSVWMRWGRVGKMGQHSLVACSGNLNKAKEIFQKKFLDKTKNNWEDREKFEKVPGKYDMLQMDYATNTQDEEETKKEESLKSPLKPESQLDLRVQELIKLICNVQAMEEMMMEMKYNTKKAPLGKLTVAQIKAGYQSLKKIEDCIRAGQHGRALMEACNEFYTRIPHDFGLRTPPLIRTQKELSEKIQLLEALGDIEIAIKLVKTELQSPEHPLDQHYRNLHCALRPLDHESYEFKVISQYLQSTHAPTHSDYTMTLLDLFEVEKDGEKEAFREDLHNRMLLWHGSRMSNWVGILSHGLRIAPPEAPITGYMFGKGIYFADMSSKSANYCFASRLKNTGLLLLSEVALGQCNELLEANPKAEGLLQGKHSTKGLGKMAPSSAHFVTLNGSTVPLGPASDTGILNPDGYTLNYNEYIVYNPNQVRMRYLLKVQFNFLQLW

Regarding `O=c1[nH]c(CCCN2CCC(c3ccccc3)CC2)nc2cccc(Cl)c12`, the IC50 (as a rule, the midpoint of a concentration-inhibition curve) in experiment [1] was 68 nM; in experiment [2], 630 nM.
Turning to `Cc1cccc2c(=O)[nH]c(CCCN3CCC(c4ccc(F)cc4)CC3)nc12`, the IC50 in experiment [1] was determined as 16 nM; in experiment [2] it was 167 nM.
`O=c1[nH]c(CCCN2CCN(c3ccccc3)CC2)nc2cccc(Cl)c12`: the IC50 in experiment [1] came out at 11 nM; in experiment [2], 300 nM.
For `O=c1[nH]c(CCCN2CCC(c3ccccc3)CC2)nc2ccccc12`, the 50% inhibitory concentration (IC50) turned out to be 21 nM in experiment [1] and 608 nM in experiment [2].
Regarding `O=c1[nH]c(CCCN2CCC(c3ccc(F)cc3)CC2)nc2c(Cl)cccc12`, the IC50 in experiment [1] amounted to 13 nM; in experiment [2], 500 nM.
For `O=c1[nH]c(CCCN2CCC(c3ccccc3)CC2)nc2c(Cl)cccc12` the same measures were 23 nM and 610 nM.
In the case of `N#Cc1ccc(C2CCN(CCCc3nc4c(Cl)cccc4c(=O)[nH]3)CC2)cc1`, the 50% inhibitory concentration (IC50) is 3 nM in experiment [1] and 87 nM in experiment [2].
